Columns and labels:
Test in all cases: KINOMEscan competition binding
Conditions in all cases: compound 10.0 µM
MKNK1 (human) = MKNK1 (human) (UniProt Q9BUB5)
CAMKK2 (human) = CAMKK2 (human) (UniProt Q96RR4)
TGFBR2 (human) = TGFBR2 (human) (UniProt P37173)
NEK2 (human) = NEK2 (human) (UniProt P51955)
[1] = system: KIT (human), P10721 [V559D/V654A]
SRPK3 (human) = SRPK3 (human) (UniProt Q9UPE1)
TNIK (human) = TNIK (human) (UniProt Q9UKE5)
CSNK1D (human) = CSNK1D (human) (UniProt P48730)
[2] = system: KIT (human), P10721 [V559D/T670I]
[3] = system: FLT3 (human), P36888 [K663Q]
MKNK2 (human) = MKNK2 (human) (UniProt Q9HBH9)
ACVR2A (human) = ACVR2A (human) (UniProt P27037)
GAK (human) = GAK (human) (UniProt O14976)
STK33 (human) = STK33 (human) (UniProt Q9BYT3)
PIP4K2B (human) = PIP4K2B (human) (UniProt P78356)
PLK4 (human) = PLK4 (human) (UniProt O00444)
SRPK2 (human) = SRPK2 (human) (UniProt P78362)
MAP3K5 (human) = MAP3K5 (human) (UniProt Q99683)
PRKD1 (human) = PRKD1 (human) (UniProt Q15139)
MAPK8 (human) = MAPK8 (human) (UniProt P45983)
DAPK1 (human) = DAPK1 (human) (UniProt P53355)
[4] = biological target: JAK3 JH1 catalytic (human) (UniProt P52333)
ACVR1 (human) = ACVR1 (human) (UniProt Q04771)
RPS6KA1 KD2 (human) = RPS6KA1 KD2 (human) (UniProt Q15418)
[5] = system: KIT (human), P10721 [V559D]
CSNK1E (human) = CSNK1E (human) (UniProt P49674)
PIK3CG (human) = PIK3CG (human) (UniProt P48736)
[6] = system: EIF2AK4 KD2 (human), Q9P2K8 [S808G]
RPS6KA4 KD2 (human) = RPS6KA4 KD2 (human) (UniProt O75676)
RPS6KA2 KD2 (human) = RPS6KA2 KD2 (human) (UniProt Q15349)
BMPR1B (human) = BMPR1B (human) (UniProt O00238)
CLK1 (human) = CLK1 (human) (UniProt P49759)
PIP5K1A (human) = PIP5K1A (human) (UniProt Q99755)
MINK1 (human) = MINK1 (human) (UniProt Q8N4C8)
CSNK2A2 (human) = CSNK2A2 (human) (UniProt P19784)
TAOK3 (human) = TAOK3 (human) (UniProt Q9H2K8)
MAP2K4 (human) = MAP2K4 (human) (UniProt P45985)
MAP4K4 (human) = MAP4K4 (human) (UniProt O95819)
DAPK3 (human) = DAPK3 (human) (UniProt O43293)
RPS6KA5 KD2 (human) = RPS6KA5 KD2 (human) (UniProt O75582)
PIM1 (human) = PIM1 (human) (UniProt P11309)
HIPK1 (human) = HIPK1 (human) (UniProt Q86Z02)

Chain of NEK2 (human) (P51955 whole entry, looked up): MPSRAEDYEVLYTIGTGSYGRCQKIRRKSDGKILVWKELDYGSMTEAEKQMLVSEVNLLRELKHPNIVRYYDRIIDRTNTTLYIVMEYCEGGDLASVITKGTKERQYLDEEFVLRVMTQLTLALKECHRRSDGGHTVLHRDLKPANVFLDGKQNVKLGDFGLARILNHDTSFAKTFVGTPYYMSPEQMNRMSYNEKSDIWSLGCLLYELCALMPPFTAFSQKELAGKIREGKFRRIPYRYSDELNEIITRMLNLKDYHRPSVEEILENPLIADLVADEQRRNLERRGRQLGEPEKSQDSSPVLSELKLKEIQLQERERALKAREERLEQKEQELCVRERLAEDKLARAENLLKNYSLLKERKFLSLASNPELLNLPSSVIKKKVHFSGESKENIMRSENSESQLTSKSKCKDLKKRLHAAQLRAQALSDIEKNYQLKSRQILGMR
Chain of TAOK3 (human) (Q9H2K8 whole entry, looked up): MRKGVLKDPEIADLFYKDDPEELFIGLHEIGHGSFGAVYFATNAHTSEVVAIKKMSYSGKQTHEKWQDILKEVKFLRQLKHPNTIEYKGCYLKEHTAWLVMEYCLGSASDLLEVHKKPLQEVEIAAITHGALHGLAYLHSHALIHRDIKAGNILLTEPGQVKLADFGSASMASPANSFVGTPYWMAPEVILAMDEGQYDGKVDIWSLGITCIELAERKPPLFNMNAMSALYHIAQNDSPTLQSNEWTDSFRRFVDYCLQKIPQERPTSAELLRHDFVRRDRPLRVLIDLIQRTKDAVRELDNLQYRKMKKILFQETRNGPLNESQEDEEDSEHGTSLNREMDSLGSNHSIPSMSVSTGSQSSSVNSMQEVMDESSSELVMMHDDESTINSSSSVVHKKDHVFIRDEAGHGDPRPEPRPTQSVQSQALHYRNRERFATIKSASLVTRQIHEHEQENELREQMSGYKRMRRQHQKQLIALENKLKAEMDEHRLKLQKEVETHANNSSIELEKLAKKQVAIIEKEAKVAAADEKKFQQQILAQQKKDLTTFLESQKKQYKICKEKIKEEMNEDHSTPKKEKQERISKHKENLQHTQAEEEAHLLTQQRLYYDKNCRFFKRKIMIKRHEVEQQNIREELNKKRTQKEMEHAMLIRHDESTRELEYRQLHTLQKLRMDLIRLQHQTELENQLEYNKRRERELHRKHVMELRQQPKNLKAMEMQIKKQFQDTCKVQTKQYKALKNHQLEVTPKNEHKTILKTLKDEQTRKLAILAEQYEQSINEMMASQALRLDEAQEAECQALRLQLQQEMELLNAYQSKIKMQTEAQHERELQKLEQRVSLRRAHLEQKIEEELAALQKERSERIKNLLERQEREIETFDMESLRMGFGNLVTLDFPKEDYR
Chain of CLK1 (human) (P49759 whole entry, looked up): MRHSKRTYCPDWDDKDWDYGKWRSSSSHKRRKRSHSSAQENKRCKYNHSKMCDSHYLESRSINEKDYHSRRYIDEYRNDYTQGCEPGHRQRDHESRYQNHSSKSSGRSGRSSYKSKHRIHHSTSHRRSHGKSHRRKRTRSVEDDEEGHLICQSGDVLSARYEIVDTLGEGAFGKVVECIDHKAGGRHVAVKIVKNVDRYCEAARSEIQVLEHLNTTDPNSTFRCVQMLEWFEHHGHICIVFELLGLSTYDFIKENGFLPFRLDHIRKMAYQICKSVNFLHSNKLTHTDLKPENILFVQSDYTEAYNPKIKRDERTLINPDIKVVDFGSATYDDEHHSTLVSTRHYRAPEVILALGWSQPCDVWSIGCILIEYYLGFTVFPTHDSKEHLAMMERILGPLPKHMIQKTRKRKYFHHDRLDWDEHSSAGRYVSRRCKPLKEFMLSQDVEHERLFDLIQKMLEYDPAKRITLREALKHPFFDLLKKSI
Chain of MINK1 (human) (Q8N4C8 whole entry, looked up): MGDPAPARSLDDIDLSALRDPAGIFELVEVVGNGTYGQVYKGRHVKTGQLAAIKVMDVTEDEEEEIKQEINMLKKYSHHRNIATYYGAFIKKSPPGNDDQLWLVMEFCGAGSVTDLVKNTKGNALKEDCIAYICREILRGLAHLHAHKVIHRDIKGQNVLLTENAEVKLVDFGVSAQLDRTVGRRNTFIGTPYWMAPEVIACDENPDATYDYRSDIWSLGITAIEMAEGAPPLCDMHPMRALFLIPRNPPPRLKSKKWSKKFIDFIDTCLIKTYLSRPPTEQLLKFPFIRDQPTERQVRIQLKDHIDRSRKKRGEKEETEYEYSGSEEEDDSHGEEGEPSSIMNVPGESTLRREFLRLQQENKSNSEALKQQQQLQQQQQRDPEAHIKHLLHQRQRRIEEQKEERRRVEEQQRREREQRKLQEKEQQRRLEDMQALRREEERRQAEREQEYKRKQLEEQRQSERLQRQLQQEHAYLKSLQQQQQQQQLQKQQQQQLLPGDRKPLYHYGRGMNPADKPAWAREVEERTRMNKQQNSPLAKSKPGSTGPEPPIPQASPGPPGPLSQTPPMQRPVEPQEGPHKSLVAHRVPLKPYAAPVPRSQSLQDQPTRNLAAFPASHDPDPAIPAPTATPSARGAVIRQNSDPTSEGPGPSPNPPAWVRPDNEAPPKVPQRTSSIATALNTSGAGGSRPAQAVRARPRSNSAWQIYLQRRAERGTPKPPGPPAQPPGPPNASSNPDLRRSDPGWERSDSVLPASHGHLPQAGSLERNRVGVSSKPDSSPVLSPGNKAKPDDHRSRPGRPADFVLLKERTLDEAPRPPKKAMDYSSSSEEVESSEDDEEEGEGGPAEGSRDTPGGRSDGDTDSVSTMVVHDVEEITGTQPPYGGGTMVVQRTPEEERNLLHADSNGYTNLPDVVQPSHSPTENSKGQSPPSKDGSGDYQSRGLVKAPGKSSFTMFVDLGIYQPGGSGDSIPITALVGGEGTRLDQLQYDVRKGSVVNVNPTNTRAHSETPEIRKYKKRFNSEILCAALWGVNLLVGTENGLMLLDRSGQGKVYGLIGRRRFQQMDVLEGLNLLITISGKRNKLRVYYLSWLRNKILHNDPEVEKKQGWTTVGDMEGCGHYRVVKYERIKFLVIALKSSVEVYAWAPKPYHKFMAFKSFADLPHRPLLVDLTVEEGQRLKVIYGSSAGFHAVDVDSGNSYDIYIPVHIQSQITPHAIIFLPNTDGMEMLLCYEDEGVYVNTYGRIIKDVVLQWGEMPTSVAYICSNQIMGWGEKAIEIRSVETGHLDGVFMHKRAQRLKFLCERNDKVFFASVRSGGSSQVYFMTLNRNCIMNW
Chain of SRPK2 (human) (P78362 whole entry, looked up): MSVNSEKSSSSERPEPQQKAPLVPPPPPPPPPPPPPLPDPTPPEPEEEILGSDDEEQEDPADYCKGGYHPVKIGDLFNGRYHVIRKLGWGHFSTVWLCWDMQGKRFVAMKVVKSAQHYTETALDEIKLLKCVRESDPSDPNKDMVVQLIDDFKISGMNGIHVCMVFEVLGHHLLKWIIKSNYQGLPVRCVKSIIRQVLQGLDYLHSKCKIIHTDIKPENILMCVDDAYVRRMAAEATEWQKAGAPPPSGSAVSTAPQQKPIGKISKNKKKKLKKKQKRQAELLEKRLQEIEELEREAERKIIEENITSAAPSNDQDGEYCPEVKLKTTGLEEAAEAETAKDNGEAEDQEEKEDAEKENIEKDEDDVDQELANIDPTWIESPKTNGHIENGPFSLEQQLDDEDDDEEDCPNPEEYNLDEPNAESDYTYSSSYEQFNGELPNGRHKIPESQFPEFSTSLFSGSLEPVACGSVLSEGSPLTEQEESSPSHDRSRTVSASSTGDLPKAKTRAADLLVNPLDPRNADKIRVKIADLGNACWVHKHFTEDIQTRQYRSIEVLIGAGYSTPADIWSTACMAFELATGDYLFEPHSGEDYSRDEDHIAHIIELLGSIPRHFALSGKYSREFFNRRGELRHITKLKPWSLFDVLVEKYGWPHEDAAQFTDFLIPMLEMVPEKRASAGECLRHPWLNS
Chain of MAP4K4 (human) (O95819 whole entry, looked up): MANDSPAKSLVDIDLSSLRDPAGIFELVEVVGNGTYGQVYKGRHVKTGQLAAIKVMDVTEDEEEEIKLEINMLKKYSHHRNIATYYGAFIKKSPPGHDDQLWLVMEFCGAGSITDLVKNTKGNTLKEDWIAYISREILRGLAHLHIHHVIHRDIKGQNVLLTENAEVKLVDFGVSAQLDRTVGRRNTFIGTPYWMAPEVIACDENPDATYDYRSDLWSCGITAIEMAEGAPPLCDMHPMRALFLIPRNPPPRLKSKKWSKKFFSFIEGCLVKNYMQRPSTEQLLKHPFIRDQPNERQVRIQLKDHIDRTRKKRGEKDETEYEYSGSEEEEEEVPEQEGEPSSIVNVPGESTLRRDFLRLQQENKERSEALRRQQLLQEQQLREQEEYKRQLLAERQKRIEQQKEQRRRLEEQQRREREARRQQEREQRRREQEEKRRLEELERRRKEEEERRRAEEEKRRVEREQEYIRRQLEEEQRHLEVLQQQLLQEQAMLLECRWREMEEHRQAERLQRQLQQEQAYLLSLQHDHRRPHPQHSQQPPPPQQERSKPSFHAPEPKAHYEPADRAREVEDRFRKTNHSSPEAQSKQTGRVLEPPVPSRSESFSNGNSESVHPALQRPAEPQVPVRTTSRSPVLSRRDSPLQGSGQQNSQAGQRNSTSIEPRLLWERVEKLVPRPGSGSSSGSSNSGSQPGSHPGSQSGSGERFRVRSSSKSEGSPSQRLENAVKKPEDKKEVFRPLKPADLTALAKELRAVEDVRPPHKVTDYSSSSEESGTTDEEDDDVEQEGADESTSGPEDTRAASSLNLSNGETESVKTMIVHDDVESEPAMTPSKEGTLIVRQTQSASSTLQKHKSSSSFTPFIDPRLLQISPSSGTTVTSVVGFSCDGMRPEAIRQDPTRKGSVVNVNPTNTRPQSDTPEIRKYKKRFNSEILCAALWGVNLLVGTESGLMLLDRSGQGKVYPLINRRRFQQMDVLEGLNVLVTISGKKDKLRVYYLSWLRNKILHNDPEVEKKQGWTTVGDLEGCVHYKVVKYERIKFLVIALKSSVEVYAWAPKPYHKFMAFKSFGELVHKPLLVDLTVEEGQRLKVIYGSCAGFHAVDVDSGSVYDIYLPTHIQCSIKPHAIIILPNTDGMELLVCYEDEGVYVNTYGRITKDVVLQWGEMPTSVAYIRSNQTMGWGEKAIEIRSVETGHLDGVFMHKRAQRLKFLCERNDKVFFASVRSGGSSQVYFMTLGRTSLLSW

Q: Which results are given for `CN1C(=O)c2ccccc2N(C)c2nc(Nc3ccc(N4CCC(O)CC4)cc3)ncc21`?
A: kinase still bound, per cent of control (MKNK1 (human)): 28%; kinase still bound, per cent of control (CAMKK2 (human)): 55%; kinase still bound, per cent of control (TGFBR2 (human)): 100%; kinase still bound, per cent of control (NEK2 (human)): 100%; kinase still bound, per cent of control [1]: 58%; kinase still bound, per cent of control (SRPK3 (human)): 84%; kinase still bound, per cent of control (TNIK (human)): 83%; kinase still bound, per cent of control (CSNK1D (human)): 77%; kinase still bound, per cent of control [2]: 73%; kinase still bound, per cent of control [3]: 85%; kinase still bound, per cent of control (MKNK2 (human)): 8.4%; kinase still bound, per cent of control (ACVR2A (human)): 90%; kinase still bound, per cent of control (GAK (human)): 37%; kinase still bound, per cent of control (STK33 (human)): 75%; kinase still bound, per cent of control (PIP4K2B (human)): 75%; kinase still bound, per cent of control (PLK4 (human)): 1.8%; kinase still bound, per cent of control (SRPK2 (human)): 100%; kinase still bound, per cent of control (MAP3K5 (human)): 100%; kinase still bound, per cent of control (PRKD1 (human)): 98%; kinase still bound, per cent of control (MAPK8 (human)): 100%; kinase still bound, per cent of control (DAPK1 (human)): 98%; kinase still bound, per cent of control [4]: 93%; kinase still bound, per cent of control (ACVR1 (human)): 88%; kinase still bound, per cent of control (RPS6KA1 KD2 (human)): 45%; kinase still bound, per cent of control [5]: 80%; kinase still bound, per cent of control (CSNK1E (human)): 100%; kinase still bound, per cent of control (PIK3CG (human)): 4.2%; kinase still bound, per cent of control [6]: 98%; kinase still bound, per cent of control (RPS6KA4 KD2 (human)): 89%; kinase still bound, per cent of control (RPS6KA2 KD2 (human)): 91%; kinase still bound, per cent of control (BMPR1B (human)): 13%; kinase still bound, per cent of control (CLK1 (human)): 75%; kinase still bound, per cent of control (PIP5K1A (human)): 100%; kinase still bound, per cent of control (MINK1 (human)): 100%; kinase still bound, per cent of control (CSNK2A2 (human)): 58%; kinase still bound, per cent of control (TAOK3 (human)): 1.2%; kinase still bound, per cent of control (MAP2K4 (human)): 74%; kinase still bound, per cent of control (MAP4K4 (human)): 85%; kinase still bound, per cent of control (DAPK3 (human)): 100%; kinase still bound, per cent of control (RPS6KA5 KD2 (human)): 100%; kinase still bound, per cent of control (PIM1 (human)): 91%; kinase still bound, per cent of control (HIPK1 (human)): 95%

Q: With `CN1C(=O)c2ccccc2N(C)c2nc(NS(=O)(=O)c3ccc(N)cc3)ncc21` as the compound, how does the kinase still bound, per cent of control (MKNK1 (human)) read?
A: 100%

Q: What about the kinase still bound, per cent of control (CAMKK2 (human)) of the same compound?
A: 100%

Q: And the kinase still bound, per cent of control (TGFBR2 (human))?
A: 100%

Q: And the kinase still bound, per cent of control (NEK2 (human))?
A: 100%

Q: What about the kinase still bound, per cent of control [1] of the same compound?
A: 100%

Q: What about the kinase still bound, per cent of control (SRPK3 (human)) of the same compound?
A: 100%

Q: And the kinase still bound, per cent of control (TNIK (human))?
A: 100%

Q: And the kinase still bound, per cent of control (CSNK1D (human))?
A: 82%

Q: What about the kinase still bound, per cent of control [2] of the same compound?
A: 100%

Q: What about the kinase still bound, per cent of control [3] of the same compound?
A: 100%

Q: What about the kinase still bound, per cent of control (MKNK2 (human)) of the same compound?
A: 72%

Q: And the kinase still bound, per cent of control (ACVR2A (human))?
A: 100%

Q: And the kinase still bound, per cent of control (GAK (human))?
A: 100%

Q: And the kinase still bound, per cent of control (STK33 (human))?
A: 100%

Q: And the kinase still bound, per cent of control (PIP4K2B (human))?
A: 100%

Q: And the kinase still bound, per cent of control (PLK4 (human))?
A: 97%

Q: And the kinase still bound, per cent of control (SRPK2 (human))?
A: 100%

Q: And the kinase still bound, per cent of control (MAP3K5 (human))?
A: 100%

Q: What about the kinase still bound, per cent of control (PRKD1 (human)) of the same compound?
A: 100%

Q: And the kinase still bound, per cent of control (MAPK8 (human))?
A: 100%

Q: What about the kinase still bound, per cent of control (DAPK1 (human)) of the same compound?
A: 100%

Q: What about the kinase still bound, per cent of control [4] of the same compound?
A: 100%

Q: And the kinase still bound, per cent of control (ACVR1 (human))?
A: 100%

Q: What about the kinase still bound, per cent of control (RPS6KA1 KD2 (human)) of the same compound?
A: 100%

Q: And the kinase still bound, per cent of control [5]?
A: 100%

Q: What about the kinase still bound, per cent of control (CSNK1E (human)) of the same compound?
A: 100%

Q: What about the kinase still bound, per cent of control (PIK3CG (human)) of the same compound?
A: 96%

Q: What about the kinase still bound, per cent of control [6] of the same compound?
A: 100%

Q: And the kinase still bound, per cent of control (RPS6KA4 KD2 (human))?
A: 100%

Q: What about the kinase still bound, per cent of control (RPS6KA2 KD2 (human)) of the same compound?
A: 93%

Q: What about the kinase still bound, per cent of control (BMPR1B (human)) of the same compound?
A: 100%

Q: What about the kinase still bound, per cent of control (CLK1 (human)) of the same compound?
A: 100%

Q: And the kinase still bound, per cent of control (PIP5K1A (human))?
A: 100%

Q: What about the kinase still bound, per cent of control (MINK1 (human)) of the same compound?
A: 100%

Q: And the kinase still bound, per cent of control (CSNK2A2 (human))?
A: 76%

Q: What about the kinase still bound, per cent of control (TAOK3 (human)) of the same compound?
A: 72%

Q: What about the kinase still bound, per cent of control (MAP2K4 (human)) of the same compound?
A: 61%

Q: What about the kinase still bound, per cent of control (MAP4K4 (human)) of the same compound?
A: 100%

Q: What about the kinase still bound, per cent of control (DAPK3 (human)) of the same compound?
A: 95%

Q: What about the kinase still bound, per cent of control (RPS6KA5 KD2 (human)) of the same compound?
A: 100%

Q: And the kinase still bound, per cent of control (PIM1 (human))?
A: 100%

Q: And the kinase still bound, per cent of control (HIPK1 (human))?
A: 100%

Q: How did the kinase still bound, per cent of control (MKNK1 (human)) turn out when `COc1cc(N2CCN(C)CC2)ccc1Nc1ncc2c(n1)Nc1ccccc1NC2=O` was run?
A: 100%

Q: And the kinase still bound, per cent of control (CAMKK2 (human))?
A: 100%

Q: And the kinase still bound, per cent of control (TGFBR2 (human))?
A: 32%

Q: What about the kinase still bound, per cent of control (NEK2 (human)) of the same compound?
A: 84%

Q: What about the kinase still bound, per cent of control [1] of the same compound?
A: 88%

Q: And the kinase still bound, per cent of control (SRPK3 (human))?
A: 76%

Q: What about the kinase still bound, per cent of control (TNIK (human)) of the same compound?
A: 82%

Q: And the kinase still bound, per cent of control (CSNK1D (human))?
A: 42%

Q: What about the kinase still bound, per cent of control [2] of the same compound?
A: 59%

Q: And the kinase still bound, per cent of control [3]?
A: 75%

Q: And the kinase still bound, per cent of control (MKNK2 (human))?
A: 69%

Q: What about the kinase still bound, per cent of control (ACVR2A (human)) of the same compound?
A: 34%

Q: And the kinase still bound, per cent of control (GAK (human))?
A: 5.8%

Q: What about the kinase still bound, per cent of control (STK33 (human)) of the same compound?
A: 51%

Q: And the kinase still bound, per cent of control (PIP4K2B (human))?
A: 74%

Q: And the kinase still bound, per cent of control (PLK4 (human))?
A: 2.1%

Q: And the kinase still bound, per cent of control (SRPK2 (human))?
A: 93%

Q: What about the kinase still bound, per cent of control (MAP3K5 (human)) of the same compound?
A: 100%

Q: And the kinase still bound, per cent of control (PRKD1 (human))?
A: 64%

Q: And the kinase still bound, per cent of control (MAPK8 (human))?
A: 73%

Q: And the kinase still bound, per cent of control (DAPK1 (human))?
A: 64%

Q: What about the kinase still bound, per cent of control [4] of the same compound?
A: 92%

Q: And the kinase still bound, per cent of control (ACVR1 (human))?
A: 37%

Q: What about the kinase still bound, per cent of control (RPS6KA1 KD2 (human)) of the same compound?
A: 43%

Q: What about the kinase still bound, per cent of control [5] of the same compound?
A: 55%

Q: And the kinase still bound, per cent of control (CSNK1E (human))?
A: 59%

Q: And the kinase still bound, per cent of control (PIK3CG (human))?
A: 100%

Q: And the kinase still bound, per cent of control [6]?
A: 12%

Q: And the kinase still bound, per cent of control (RPS6KA4 KD2 (human))?
A: 31%

Q: And the kinase still bound, per cent of control (RPS6KA2 KD2 (human))?
A: 80%

Q: And the kinase still bound, per cent of control (BMPR1B (human))?
A: 19%

Q: And the kinase still bound, per cent of control (CLK1 (human))?
A: 100%

Q: And the kinase still bound, per cent of control (PIP5K1A (human))?
A: 47%

Q: And the kinase still bound, per cent of control (MINK1 (human))?
A: 71%

Q: And the kinase still bound, per cent of control (CSNK2A2 (human))?
A: 100%

Q: What about the kinase still bound, per cent of control (TAOK3 (human)) of the same compound?
A: 2.1%

Q: What about the kinase still bound, per cent of control (MAP2K4 (human)) of the same compound?
A: 93%

Q: What about the kinase still bound, per cent of control (MAP4K4 (human)) of the same compound?
A: 86%

Q: What about the kinase still bound, per cent of control (DAPK3 (human)) of the same compound?
A: 90%

Q: What about the kinase still bound, per cent of control (RPS6KA5 KD2 (human)) of the same compound?
A: 92%

Q: And the kinase still bound, per cent of control (PIM1 (human))?
A: 46%

Q: What about the kinase still bound, per cent of control (HIPK1 (human)) of the same compound?
A: 45%

— the kinase profiling compilation of Christmann-Franck et al. (2016)
